In US12264159B2, “Functionalized heterocycles as antiviral agents” (Enanta Pharmaceuticals, Inc., priority 2018, dated 2025) one finds CC50 and EC50 data, which are given here for 20 molecules.

The CC50 is the concentration giving 50% cytotoxicity. Low values mean greater toxicity to the cells, high ones lower toxicity to the cells. Broadly, the pEC50 is −log10 of the EC50, conventionally taken in molar units.

The nature of data set [1]: Compound induced cellular toxicity in HepG2 cells, ATPlite 1Step. The note with it: human, three days exposure, 50% reduction of total ATP vs no drug controls. The data set is classed as cell-based. The protocol:
At day 3, post seeding cells are treated with ATPlite 1Step according to the manufacturer's instructions.
(Cellular ATP, detected with luciferase, serves as a proxy for viable cell number.)

The test system of a further data set is HBV in 2.2.15 cells. Description: 2.2.15 cells: viral product in cell lysates quantified via quantitative real time PCR. The note with it: Hepatitis B virus, 120 h, day 5 post treatment, 50% reduction of viral product vs no drug controls, readout (qPCR, HBsAg or HBeAg) not specified for the column. Format: cell-based, hepatitis B virus (HBV). On the procedure:
2.2.15 cells are passaged upon attaining confluency in DMEM/F12 media in the presence of 10% FBS, Penn/Strep, and 250 ug/mL G418. Novel compounds are 5 fold serially diluted in DMSO and added to 96 well plates containing 35,000 cells/well at a 1:200 dilution so that the final concentration of DMSO is 0.5%. On day 5, post treatment cell lysates and supernatants are harvested for analysis.
Cells are lysed using Agilent Sidestep Lysis buffer, diluted 1:100 and quantified via quantitative real time PCR. Commercially available ELISA kits are used to quantitate the viral proteins HBsAg (Alpco) or HBeAg (US Biological) by following the manufacturer's recommended protocol after diluting samples to match the linear range of their respective assays. Irrespective of readout, compound concentrations that reduce viral product accumulation in the cell lysates or supernatants by 50% relative to no drug controls (EC50) are reported; EC50 ranges are as follows: A<0.1 μM; B 0.2-1 μM; C>1 μM.
(Quantitative PCR measures a nucleic acid by following its amplification.)

pEC50: −log10 of the molar value.

`CC(C)(C)[C@@H]1Cn2nc(-c3c(F)ccc4c3OCO4)cc2-c2cc(=O)c(C(=O)O)cn21` [Example 54, (R)-6-(tert-butyl)-2-(5-fluorobenzo[d][1,3]dioxol-4-yl)-10-oxo-5,6-dihydro-10H-pyrazolo[1,5-a]pyrido[2,2-c]pyrazine-12-carboxylic acid]: the CC50 at 3 days in data set [1] is above 25 µM. This molecule showed a negative-log EC50 (pEC50) with HBV in 2.2.15 cells above 7.00.
For `CC(C)(C)[C@@H]1Cn2nc(-c3ccc(F)cc3)c(-c3ccccc3F)c2-c2cc(=O)c(C(=O)O)cn21` [Example 169, (R)-6-(tert-butyl)-1-(2-fluorophenyl)-2-(4-fluorophenyl)-10-oxo-5,6-dihydro-10H-pyrazolo[1,5-a]pyrido[2,1-c]pyrazine-9-carboxylic acid] the same measures were 10 to 25 µM and above 7.00.
In turn, `CC(C)(C)[C@@H]1Cn2ncc(-c3ccc(F)c(F)c3)c2-c2cc(=O)c(C(=O)O)cn21` [Example 110, (R)-6-(tert-butyl)-1-(3,4-difluorophenyl)-10-oxo-5,6-dihydro-10H-pyrazolo[1,5-a]pyrido[2,1-c]pyrazine-9-carboxylic acid] returned a cytotoxic concentration (CC50) at 3 days in data set [1] below 10 µM. The molecule further showed a pEC50 in the data set with HBV in 2.2.15 cells above 7.00.
For `CC(C)(C)[C@@H]1Cn2ncc(-c3cccc4c3OC(F)(F)O4)c2-c2cc(=O)c(C(=O)O)cn21` [Example 111, (R)-6-(tert-butyl)-1-(2,2-difluorobenzo[d][1,3]dioxol-4-yl)-10-oxo-5,6-dihydro-10H-pyrazolo[1,5-a]pyrido[2,1-c]pyrazine-9-carboxylic acid], in data set [1], the cytotoxic concentration (CC50) at 3 days was above 25 µM. The molecule further showed a negative-log EC50 (pEC50) in the data set with HBV in 2.2.15 cells above 7.00.
In turn, `CC(C)(C)[C@@H]1Cn2nc(-c3ccc(Cl)cc3)cc2-c2cc(=O)c(C(=O)O)cn21` [Example 13, (R)-6-(tert-butyl)-2-(4-chlorophenyl)-10-oxo-5,6-dihydro-10H-pyrazolo[1,5-a]pyrido[2,2-c]pyrazine-12-carboxylic acid] came in with a CC50 at 3 days in data set [1] above 25 µM. In the data set on HBV in 2.2.15 cells, this molecule showed a pEC50 above 7.00.
Taken in the same sequence, the figures for `CC(C)(C)[C@@H]1Cn2nc(-c3c(O)cccc3F)cc2-c2cc(=O)c(C(=O)O)cn21` [Example 47, (R)-6-(tert-butyl)-2-(2-fluoro-6-hydroxyphenyl)-10-oxo-5,6-dihydro-10H-pyrazolo[1,5-a]pyrido[2,2-c]pyrazine-12-carboxylic acid] were above 25 µM and above 7.00.
Taken in the same sequence, the figures for `CC(C)[C@@H]1Cn2nc(-c3ccccc3F)c(-c3ccccc3F)c2-c2c(F)c(=O)c(C(=O)O)cn21` [Example 182, (R)-11-fluoro-1,2-bis(2-fluorophenyl)-6-isopropyl-10-oxo-5,6-dihydro-10H-pyrazolo[1,5-a]pyrido[2,1-c]pyrazine-9-carboxylic acid] were above 25 µM and above 7.00.
Taken in the same sequence, the figures for `COc1cccc(-c2cnn3c2-c2cc(=O)c(C(=O)O)cn2[C@H](C(C)(C)C)C3)c1` [Example 113, (R)-6-(tert-butyl)-1-(3-methoxyphenyl)-10-oxo-5,6-dihydro-10H-pyrazolo[1,5-a]pyrido[2,1-c]pyrazine-9-carboxylic acid] were above 25 µM and above 7.00.
Molecule `CC(C)(C)[C@@H]1Cn2nc(-c3ccc(F)cc3)cc2-c2cc(=O)c(C(=O)O)cn21` [Example 1, (R)-6-(tert-butyl)-2-(4-fluorophenyl)-10-oxo-5,6-dihydro-10H-pyrazolo[1,5-a]pyrido[2,2-c]pyrazine-12-carboxylic acid] gave a CC50 at 3 days in data set [1] above 25 µM. The pEC50 in the data set with HBV in 2.2.15 cells is above 7.00.
For `COc1ncc(-c2cc3n(n2)C[C@@H](C(C)(C)C)n2cc(C(=O)O)c(=O)cc2-3)cn1` [Example 6, (R)-6-(tert-butyl)-2-(2-methoxypyrimidin-5-yl)-10-oxo-5,6-dihydro-10H-pyrazolo[1,5-a]pyrido[2,2-c]pyrazine-12-carboxylic acid] the same measures were above 25 µM and above 7.00.
Taken in the same sequence, the figures for `CC(C)(C)[C@@H]1Cn2ncc(-c3ccccc3)c2-c2cc(=O)c(C(=O)O)cn21` [Example 107, (R)-6-(tert-butyl)-10-oxo-1-phenyl-5,6-dihydro-10H-pyrazolo[1,5-a]pyrido[2,1-c]pyrazine-9-carboxylic acid] were below 10 µM and above 7.00.
Take `CC(C)(C)[C@@H]1Cn2nc(-c3cccc(F)c3)c(-c3cccc(F)c3)c2-c2cc(=O)c(-c3ncn[nH]3)cn21` [Example 193, (R)-6-(tert-butyl)-1,2-bis(3-fluorophenyl)-9-(1H-1,2,4-triazol-5-yl)-5,6-dihydro-10H-pyrazolo[1,5-a]pyrido[2,1-c]pyrazin-10-one]: the CC50 at 3 days in data set [1] was above 25 µM. For the same molecule, the pEC50 in the data set on HBV in 2.2.15 cells was above 7.00.
In data set [1], `CC(C)(C)[C@@H]1Cn2nc(C3CC3)c(-c3ccccc3O)c2-c2cc(=O)c(C(=O)O)cn21` [Example 165, (R)-6-(tert-butyl)-2-cyclopropyl-1-(2-hydroxyphenyl)-10-oxo-5,6-dihydro-10H-pyrazolo[1,5-a]pyrido[2,1-c]pyrazine-9-carboxylic acid] had a CC50 at 3 days above 25 µM. The pEC50 in the data set with HBV in 2.2.15 cells is above 7.00.
As to `CC(C)(C)[C@@H]1Cn2ncc(-c3ccc(OC(F)(F)F)cc3)c2-c2cc(=O)c(C(=O)O)cn21` [Example 117, (R)-6-(tert-butyl)-10-oxo-1-(4-(trifluoromethoxy)phenyl)-5,6-dihydro-10H-pyrazolo[1,5-a]pyrido[2,1-c]pyrazine-9-carboxylic acid], the pEC50 with HBV in 2.2.15 cells was below 6.00.
`CC(C)(C)[C@@H]1Cn2ncc(-c3ccncc3)c2-c2cc(=O)c(C(=O)O)cn21` [Example 119, (R)-6-(tert-butyl)-10-oxo-1-(pyridin-4-yl)-5,6-dihydro-10H-pyrazolo[1,5-a]pyrido[2,1-c]pyrazine-9-carboxylic acid] showed a pEC50 with HBV in 2.2.15 cells above 7.00.
`CC(C)[C@@H]1Cn2nc(-c3cccc(O)c3)c(-c3cccc(O)c3)c2-c2c(F)c(=O)c(C(=O)O)cn21` [Example 190, (R)-11-fluoro-1,2-bis(3-hydroxyphenyl)-6-isopropyl-10-oxo-5,6-dihydro-10H-pyrazolo[1,5-a]pyrido[2,1-c]pyrazine-9-carboxylic acid] gave a pEC50 in the data set on HBV in 2.2.15 cells of 6.00 to 6.70.
The same measure, in the same setting: the same measure for `CC(C)(C)[C@@H]1Cn2ncc(Cl)c2-c2cc(=O)c(C(=O)O)cn21` [Example 99, (R)-6-(tert-butyl)-1-chloro-10-oxo-5,6-dihydro-10H-pyrazolo[1,5-a]pyrido[2,1-c]pyrazine-9-carboxylic acid]: 6.00 to 6.70; for `CCOc1ccccc1-c1cnn2c1-c1cc(=O)c(C(=O)O)cn1[C@H](C(C)(C)C)C2` [Example 124, (R)-6-(tert-butyl)-1-(2-ethoxyphenyl)-10-oxo-5,6-dihydro-10H-pyrazolo[1,5-a]pyrido[2,1-c]pyrazine-9-carboxylic acid]: above 7.00; for `CC(C)[C@@H]1Cn2nc(-c3cccnc3)c(-c3cccnc3)c2-c2c(F)c(=O)c(C(=O)O)cn21` [Example 189, (R)-11-fluoro-6-isopropyl-10-oxo-1,2-di(pyridin-3-yl)-5,6-dihydro-10H-pyrazolo[1,5-a]pyrido[2,1-c]pyrazine-9-carboxylic acid]: 6.00 to 6.70.
On the same count and under the same terms, then `CC(C)[C@@H]1Cn2nc(C3CC3)c(-c3cncc(F)c3)c2-c2cc(=O)c(C(=O)O)cn21` [Example 135, (R)-2-cyclopropyl-1-(5-fluoropyridin-3-yl)-6-isopropyl-10-oxo-5,6-dihydro-10H-pyrazolo[1,5-a]pyrido[2,1-c]pyrazine-9-carboxylic acid], with above 7.00.
